From PubChem BioAssay (NCI)
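Compound exposure: 48 hours, 5 concentrations, 96-well plates. TGI denotes the concentration required for complete inhibition of growth.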

Tests used:
Experiment in all cases: growth of human tumour cells (NCI), 48 h
[1] = test system: SF-295 CNS
[2] = test system: KM12 colon
[3] = test system: A549 NSCLC
[4] = test system: SW-620 colon
[5] = test system: 786-0 renal
[6] = test system: K-562 leukemia
[7] = test system: UACC-62 melanoma
[8] = test system: SF-268 CNS
[9] = test system: MCF7 breast
[10] = test system: HL-60(TB) leukemia
[11] = test system: SNB-75 CNS
[12] = test system: T-47D breast
[13] = test system: SK-MEL-5 melanoma
[14] = test system: U251 CNS
[15] = test system: SK-OV-3 ovarian
[16] = test system: NCI-H522 lung
[17] = test system: SNB-19 CNS
[18] = test system: CAKI-1 renal
[19] = test system: RXF 393 renal
[20] = test system: SK-MEL-2 melanoma
[21] = test system: MALME-3M melanoma
[22] = test system: SR leukemia
[23] = test system: HCT-15 colon
[24] = test system: EKVX NSCLC
[25] = test system: COLO 205 colon
[26] = test system: UACC-257 melanoma
[27] = test system: BT-549 breast
[28] = test system: PC-3 prostate
[29] = test system: HOP-62 NSCLC
[30] = test system: MDA-N
[31] = test system: NCI-H460 lung
[32] = test system: OVCAR-3 ovarian
[33] = test system: SK-MEL-28 melanoma
[34] = test system: MDA-MB-435
[35] = test system: HS 578T breast
[36] = test system: M14 melanoma
[37] = test system: DU-145 prostate
[38] = test system: NCI-H23 lung
[39] = test system: CCRF-CEM leukemia
[40] = test system: OVCAR-8 ovarian
[41] = test system: HT29 colon
[42] = test system: UO-31 renal
[43] = test system: MDA-MB-231 breast
[44] = test system: TK-10 renal
[45] = test system: OVCAR-4 ovarian
[46] = test system: SN12C renal
[47] = test system: ACHN renal
[48] = test system: LOX IMVI melanoma
[49] = test system: OVCAR-5 ovarian
[50] = test system: RPMI-8226 leukemia
[51] = test system: IGROV1 ovarian
[52] = test system: NCI/ADR-RES ovarian
[53] = test system: MOLT-4 leukemia
[54] = test system: HCT-116 colon
[55] = test system: HOP-92 NSCLC
[56] = test system: A498 renal
[57] = test system: HCC-2998 colon
[58] = test system: NCI-H226 lung
[59] = test system: SF-539 CNS

Measured: TGI

C=C(Br)CN(C)CC(=C)Br
> 100 µM: [1] | [2] | [3] | [4] | [5] | [6] | [7] | [8] | [9] | [10] | [11] | [12] | [13] | [14] | [15] | [16] | [17] | [18] | [19] | [20] | [21] | [22] | [23] | [24] | [25] | [26] | [27] | [28] | [29] | [30] | [31] | [32] | [33] | [34] | [35] | [36] | [37] | [38] | [39] | [40] | [41] | [42] | [43] | [44] | [45] | [46] | [47] | [48] | [49] | [50] | [51] | [52] | [53] | [54] | [55] | [56]

CC(NC(=O)C(CC(=O)OCc1ccccc1)NC(=O)OCc1ccccc1)c1ccccc1 (configuration not stated)
> 100 µM: [1] | [2] | [3] | [4] | [5] | [6] | [7] | [8] | [57] | [9] | [11] | [12] | [13] | [14] | [15] | [16] | [17] | [18] | [19] | [20] | [21] | [22] | [23] | [24] | [25] | [27] | [28] | [29] | [30] | [31] | [32] | [33] | [34] | [35] | [36] | [37] | [38] | [40] | [41] | [42] | [43] | [44] | [46] | [58] | [47] | [49] | [59] | [50] | [51] | [52] | [53]

S=C(Nc1c2c(nc3ccccc13)CCCC2)Nc1c2c(nc3ccccc13)CCCC2
> 100 µM: [1] | [2] | [3] | [4] | [5] | [6] | [7] | [8] | [57] | [9] | [11] | [12] | [13] | [14] | [15] | [16] | [17] | [18] | [19] | [20] | [21] | [22] | [23] | [24] | [25] | [26] | [27] | [28] | [29] | [30] | [31] | [32] | [33] | [34] | [35] | [36] | [37] | [38] | [39] | [40] | [41] | [42] | [43] | [44] | [45] | [46] | [58] | [47] | [49] | [50] | [51] | [52] | [53] | [54] | [56]
